# Experimental data taken from US20120142676A1, “Oxathiazine and dithiine oxides as inhibitors of sulfhydryl-dependent biomolecules” (priority 2010, published 2012).
# How the values were obtained:
# [1] = biological target: T1, human serum albumin (HSA) (Homo sapiens, UniProt P02768); assay: Thioglo-1 fluorescent labeling of sulfhydryl groups, human serum albumin; format: biochemical; conditions: 50 μM drug, HSA 10 μM, 37° C., 3 h, 20 mM Tris pH 8.0
# Experimental: (§1) The ability of drugs to label sulfhydryl groups of cysteine, glutathione, human serum albumin (HSA) and biomolecules in K562 cells was determined spectrofluorometrically using Thioglo-1, a maleimide reagent that reacts quickly with the sulfhydryl groups to produce highly fluorescent covalent adducts. Drugs that react with sulfhydryl groups block the formation of fluorescent adducts when sulfhydryl reactant is treated with drugs prior to Thioglo-1 treatment. Cysteine (10 μM), glutathione (10 μM), human serum albumin (10 μM), or K562 cell homogenate (6×10^5 cells) in 20 mM Tris pH 8.0, was treated with 1μl of drug (or not) in DMSO at 50 μM reaction concentration at 37° C. for 3 h, followed by the addition of Thioglo-1 (22 μM). The fluorescence was measured in a Fluostar Galaxy (BMG, Durham, N.C.) fluorescence plate reader using an excitation wavelength of 380 nm and an emission wavelength of 520 nm, and the percentage inhibition of fluorescent labeling was obtained using the following equation: % Inhibition=[(1−(Fdrug−Fbackground)/Fdmso]×100, where Fdrug is the fluorescent value for Thioglo-1 treatment of biomolecules pretreated with drug, Fbackground is the fluorescent value for sample containing Thioglo-1 in Tris buffer only, and Fdmso is the fluorescent value for Thioglo-1 treatment of biomolecules pretreated with DMSO solvent only.
# [2] = test system: K562 cell homogenate; assay: Thioglo-1 fluorescent labeling of sulfhydryl groups, K562 cell homogenate; format: biochemical, human; conditions: 50 μM drug, 6×10^5 cells, 37° C., 3 h, 20 mM Tris pH 8.0
# Experimental: as §1
# [3] = Thioglo-1 fluorescent labeling of sulfhydryl groups, cysteine; conditions: 50 μM drug, 37° C., 3 h, 20 mM Tris pH 8.0
# Experimental: as §1
# [4] = test system: human leukemia K562 cells; assay: K562 cell growth inhibition assay (MTS); format: cell-based; conditions: 72 h incubation, read-out: Median growth inhibitory concentration (IC50) of K562 cells
# Experimental: K562 cells were obtained from American Type Culture Collection (Rockville, Md.). These cells were maintained as suspension cultures in alpha minimum essential medium (αMEM) (Gibco BRL, Burlington, Canada) containing 2 mM L-glutamine and supplemented with 10% fetal calf serum (Invitrogen, Burlington, ON, Canada), 20 mM NaHCO3, 20 mM HEPES (Sigma), 100 units/ml penicillin G, and 100 μg/ml streptomycin at pH 7.4 in an atmosphere of 5% CO2 and 95% air at 37° C. For the measurement of growth inhibition, cells in exponential growth were harvested and seeded at 6000 cells/well in 96-well plates (100 μl/well). Drugs were dissolved in DMSO and added to the wells such that the final concentration of DMSO was 0.5% (v/v). After 72 h incubation, 7 μl of 3-(4,5-dimethylthiazol-2-yl)-5-(3-carboxymethoxyphenyl)-2-(4-sulfophenyl)-2H-tetrazolium (MTS) Cell Titer 96® AQueous One Solution (Promega, Md., WI) was added to each well and incubated for a further 3 h. The absorbance was measured in a Molecular Devices (Menlo Park, Calif.) plate reader. The spectrophotometric 96-well plate cell growth inhibition assay measures the ability of the cells to enzymatically reduce MTS. Three replicates were measured at each drug concentration, and the IC50 values and their SEs for growth inhibition were obtained by fitting the absorbance-drug concentration data to a four-parameter logistic equation.
# [5] = biological target: T2, human topoisomerase IIα (Homo sapiens, UniProt P11388); assay: Topoisomerase IIα decatenation inhibition assay; format: biochemical; conditions: K562 cells nuclear extract, kDNA decatenation
# T2 construct: 300 ng K562 cells nuclear extract, the amount that gave 80% decatenation; endogenous in cells; host or cells: K562 cells nuclear extract
# Experimental: The catalytic inhibition of human topoisomerase IIα by a drug was measured by the ATP-dependent decatenation of kDNA (Topogen, Columbus, Ohio) into minicircles of DNA as we previously described (Hasinoff 1995 QSAR ICRF-187). The 20 μl reaction mixture contained 0.5 mM ATP, 50 mM Tris-HCl (pH 8.0), 120 mM KCl, 10 mM MgCl2, 30 μg/ml bovine serum albumin, 40 ng kDNA, drug or DMSO (0.5 μl) and 300 ng K562 cells nuclear extract, the amount that gave 80% decatenation. The enzymatic reaction was carried out at 37° C. and was terminated by the addition of 6 μl of buffer containing 5 mM Tris pH 8.0, 30% w/v sucrose, 0.5% bromophenol blue, and 125 mM EDTA. The resulting mixture was separated by electrophoresis (2 h at 8 V/cm) on an agarose gel prepared from 1.2% w/v agarose and 0.5 μg/ml ethidium bromide in TAE buffer pH 8.0 (40 mM Tris base, 0.114% (v/v) glacial acetic acid, 2 mM EDTA). The DNA in the gel was imaged by its fluorescence on an Alpha Annotech Fluorchem 8900 imaging system equipped with a 365 nm illuminator and a CCD camera. Densitometry scanning of gel photographs was used to obtain the fluorescence intensity of the band corresponding to the DNA minicircles. The percentage inhibition of K562 topoisomerase II catalytic activity at concentrations of 3 and 30 μM was determined using the following equation: % Inhibition=[(1−(Bdrug−Bbackground)/Bdmso]×100, where Bdrug is the band intensity value for the enzymatic reaction sample treated with drug, Bbackground is the band intensity value for sample without the enzyme, and Bdmso is the band intensity value for the enzymatic reaction sample treated with DMSO solvent only.
# [6] = Thioglo-1 fluorescent labeling of sulfhydryl groups, glutathione; conditions: 50 μM drug, 37° C., 3 h, 20 mM Tris pH 8.0
# Experimental: as §1
# [7] = biological target: T1, human serum albumin (HSA); assay: ESI-MS study on covalent labeling of sulfhydryl group of HSA; format: binding; conditions: drug with 65 μM HSA, Tris pH 7.5, 5 h, room temperature
# Experimental: The MS drug-HSA protein binding studies were carried out using an Applied Biosystems API 2000 Triple Quadrupole mass spectrometer (Thornhill, Canada) equipped with a syringe pump (Harvade Apparatus, Holliston, Mass.) at a flow rate of 5-10 μl/min. The Analyst software (version 1.4) was used for system control and data acquisition. The ESI source was operated in the positive ion mode with an electrospray voltage of +4.4 kV without capillary heating. MagTran freeware (version 1.02, http://www.geocities.com/SiliconValley/Hills/2679/magtran.html) was used for charge state deconvolution of HSA and drug-HSA covalent adducts.
# The reaction of drug and HSA was carried out by mixing drug (or not) in DMSO (11μl, 6 mM) with HSA in 16 mM Tris pH 7.5 buffer (1 ml, 65 μM) for 5 h at room temperature. The reaction mixture was then dialyzed using a dialysis membrane with a 10,000 Da cutoff. The dialyzed mixture (150 μl) was diluted with a solution mixture of water (124 μl), methanol (76 μl), and formic acid (17 μl, 6% v/v). Scanning was 1000-1800 m/z units every 4 s with a step size of 0.10 amu.
# T1 sequence (P02768 25-609): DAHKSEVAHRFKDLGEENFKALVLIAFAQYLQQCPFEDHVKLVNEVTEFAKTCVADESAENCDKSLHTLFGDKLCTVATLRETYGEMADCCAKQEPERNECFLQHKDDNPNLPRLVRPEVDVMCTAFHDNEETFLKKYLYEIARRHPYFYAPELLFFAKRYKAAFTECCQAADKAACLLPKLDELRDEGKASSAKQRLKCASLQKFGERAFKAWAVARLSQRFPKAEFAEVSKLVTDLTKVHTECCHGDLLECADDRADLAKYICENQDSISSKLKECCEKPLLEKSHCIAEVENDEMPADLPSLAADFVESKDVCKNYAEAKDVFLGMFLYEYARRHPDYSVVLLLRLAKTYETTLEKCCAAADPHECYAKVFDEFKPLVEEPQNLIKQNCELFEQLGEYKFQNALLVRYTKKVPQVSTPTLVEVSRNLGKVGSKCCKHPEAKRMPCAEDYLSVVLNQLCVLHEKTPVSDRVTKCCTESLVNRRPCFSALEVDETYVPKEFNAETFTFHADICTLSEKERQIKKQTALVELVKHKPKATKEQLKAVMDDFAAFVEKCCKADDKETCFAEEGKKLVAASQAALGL
# T2 sequence (P11388 whole entry): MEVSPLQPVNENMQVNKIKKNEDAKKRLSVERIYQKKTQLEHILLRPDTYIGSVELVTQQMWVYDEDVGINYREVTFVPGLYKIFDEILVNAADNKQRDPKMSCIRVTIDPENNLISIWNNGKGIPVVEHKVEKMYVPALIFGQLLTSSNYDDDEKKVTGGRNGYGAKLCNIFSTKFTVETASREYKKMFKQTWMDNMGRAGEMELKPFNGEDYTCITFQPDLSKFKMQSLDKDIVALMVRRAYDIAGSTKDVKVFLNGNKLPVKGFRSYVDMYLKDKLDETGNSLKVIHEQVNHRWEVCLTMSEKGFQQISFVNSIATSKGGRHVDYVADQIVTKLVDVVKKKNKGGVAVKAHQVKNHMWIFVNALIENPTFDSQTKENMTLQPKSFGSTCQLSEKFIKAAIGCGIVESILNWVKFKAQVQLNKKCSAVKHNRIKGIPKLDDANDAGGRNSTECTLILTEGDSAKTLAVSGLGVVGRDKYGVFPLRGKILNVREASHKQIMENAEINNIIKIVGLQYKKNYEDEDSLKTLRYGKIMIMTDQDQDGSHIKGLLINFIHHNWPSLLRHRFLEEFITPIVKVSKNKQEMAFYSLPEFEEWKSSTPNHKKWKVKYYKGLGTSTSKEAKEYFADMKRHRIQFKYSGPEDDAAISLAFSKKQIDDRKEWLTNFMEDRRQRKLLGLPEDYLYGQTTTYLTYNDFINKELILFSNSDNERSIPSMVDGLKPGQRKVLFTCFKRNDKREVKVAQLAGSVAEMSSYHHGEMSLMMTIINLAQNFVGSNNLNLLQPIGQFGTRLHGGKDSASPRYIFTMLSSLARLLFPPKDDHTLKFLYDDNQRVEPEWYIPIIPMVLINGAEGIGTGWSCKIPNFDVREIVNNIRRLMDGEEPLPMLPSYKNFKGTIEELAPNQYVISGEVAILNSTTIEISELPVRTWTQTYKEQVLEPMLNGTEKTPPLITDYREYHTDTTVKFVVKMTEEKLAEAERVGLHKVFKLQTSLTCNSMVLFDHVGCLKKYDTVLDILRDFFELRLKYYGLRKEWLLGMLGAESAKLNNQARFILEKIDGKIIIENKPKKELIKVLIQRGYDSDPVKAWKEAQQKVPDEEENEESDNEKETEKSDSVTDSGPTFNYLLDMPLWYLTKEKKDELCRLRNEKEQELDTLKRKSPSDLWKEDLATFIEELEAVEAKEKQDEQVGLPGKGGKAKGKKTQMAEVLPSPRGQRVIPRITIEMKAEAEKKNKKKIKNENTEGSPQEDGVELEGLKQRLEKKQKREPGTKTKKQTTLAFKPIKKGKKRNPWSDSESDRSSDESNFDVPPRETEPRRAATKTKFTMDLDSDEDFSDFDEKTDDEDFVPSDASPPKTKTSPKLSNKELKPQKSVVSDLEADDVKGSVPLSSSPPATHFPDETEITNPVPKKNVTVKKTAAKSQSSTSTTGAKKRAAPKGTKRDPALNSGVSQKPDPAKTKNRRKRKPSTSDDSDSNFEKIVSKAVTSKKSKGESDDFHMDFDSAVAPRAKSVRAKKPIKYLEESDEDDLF
structure (smiles),measurement,setting,value
[O-][S+]1CCON=C1c1cc2ccccc2s1 (centres unmarked) [CMPD #9],% Inhibition of Thioglo-1 fluorescent labeling of Human serum albumin,[1],85%
same,% Inhibition of Thioglo-1 fluorescent labeling of K562 Cell homogenate,[2],95%
same,% Inhibition of Thioglo-1 fluorescent labeling of 10 μM Cysteine,[3],100%
same,IC50,[4],700 nM
same,% Inhibition of topoisomerase II catalytic activity,[5]; 3 μM,100%
same,% Inhibition of topoisomerase II catalytic activity,[5]; 30 μM,100%
same,% Inhibition of Thioglo-1 fluorescent labeling of 10 μM Glutathione,[6],100%
same,Covalent labeling of HSA (ESI-MS peak description),[7],Covalent adduct of HSA and Compound 9
